Assay results taken from article PMC5515887, “Ruthenium-conjugated chrysin analogues modulate platelet activity, thrombus formation and haemostasis with enhanced efficacy” (Scientific Reports, 2017).

Tests used:
[1] = test system: human platelet-rich plasma (PRP); experiment: CRP-XL-induced platelet aggregation in human platelet-rich plasma (optical aggregometry); type: cell-based; details: PRP, CRP-XL 0.5 μg/mL
Experimental: Therefore, to determine the effects of various concentrations of chrysin and its derivatives in the presence of plasma proteins, aggregation assays were performed using human platelet-rich plasma (PRP) and 0.5 μg/mL CRP-XL.
Figure 3 Impact of chrysin and its derivatives on platelet activation in platelet-rich plasma. […] The platelet aggregation was monitored for 5 minutes. The traces shown are representative of three separate experiments.
(§1) The preparation of human platelets and aggregation assays were performed using standard protocols as described by us previously, [16]. Briefly, human blood was collected in 3.2% citrate containing vacutainers via venepuncture from healthy, aspirin-free individuals with informed consent in accordance with the methods approved by the University of Reading Research Ethics Committee. All methods were performed in accordance with the relevant institutional and national guidelines and regulations. Blood samples were centrifuged at 102 g for 20 minutes at room temperature to separate the PRP, which was used in aggregation, flow cytometry, static platelet adhesion, calcium mobilisation and clot retraction assays. For the preparation of washed platelets, 50 mL of blood samples were mixed with 7.5 mL of ACD (acid citrate dextrose) (20 g/L glucose, 25 g/L sodium citrate and 15 g/L citric acid) and centrifuged at 102 g for 20 minutes at room temperature. The PRP was carefully aspirated from the other blood cells prior to mixing with 3 mL of ACD and centrifuging at 1413 g for 10 minutes at room temperature. The resulting platelet pellet was re-suspended in modified Tyrodes-HEPES buffer (2.9 mM KCl, 134 mM NaCl, 0.34 mM Na2HPO4.12H20, 1 mM MgCl2, 12 mM NaHCO3, 20 mM HEPES, pH 7.3) and washed by centrifuging again at 1413 g for 10 minutes. The resulting platelet pellet was suspended in modified Tyrodes-HEPES buffer at a density of 4 × 10^8 cells/mL for aggregation, dense granule secretion, cellular uptake studies and calcium mobilisation assays. Human platelet aggregation was performed using CRP-XL as an agonist in the presence and absence of various concentrations of chrysin and its synthetic derivatives by optical aggregometry. A vehicle control [DMSO at a concentration of less than 0.1% (v/v)] was included in all the experiments. Dense granule secretion in platelets was determined by measuring the ATP release using the luciferin-luciferase reagent by lumi-aggregometry (Chrono-Log, USA). SDS-PAGE and immunoblotting analysis were performed using standard protocols. The rabbit anti-phospho-specific antibodies for human AKT pS473, FAK pY397 and Src pY527 were obtained from Abcam, UK and rabbit anti-human 14-3-3ζ (Santa Cruz Biotechnology, USA) was used to detect protein 14-3-3ζ as a loading control in immunoblot assays. The Cy5-conjugated goat anti-rabbit IgG (Life technologies, UK) was used as the secondary antibody.

human washed platelets = experiment: CRP-XL-induced aggregation of human washed platelets (optical aggregometry); type: cell-based; details: CRP-XL 0.5 μg/mL
Experimental: To determine the effects of chrysin and thio-chrysin and their Ru-complexes in the modulation of platelet activation, aggregation assays were performed using cross-linked collagen-related peptide (CRP-XL) as a platelet agonist, by optical aggregometry. Firstly, to determine the effects of chrysin and its derivatives on isolated platelets, aggregation assays were performed using human washed platelets (devoid of plasma proteins and other blood cells).
Figure 2 Effects of chrysin and its derivatives in washed platelet aggregation. […] The aggregation traces shown are representative of three separate experiments.
as §1

[2] = test system: α-granule secretion in platelets; experiment: P-selectin exposure by flow cytometry (marker for α-granule secretion); type: cell-based, human; details: PRP; CRP-XL 0.5 μg/mL
Experimental: Platelets primarily contain two types of granules (α- and dense granules) and the activation of platelets releases the granule contents to the external environment, where they play important roles in the stimulation of additional platelets and their recruitment to the growing thrombus. […] However, chrysin affected α-granule secretion only at a minimum concentration of 50 μM in platelets.
Figure 5 Chrysin and its derivatives affect granule secretion in platelets. […] The level of P-selectin (as a marker for α-granule secretion) was quantified using PECy5-labelled anti-human P-selectin antibodies by flow cytometry. […] R represents ‘resting’ platelets. […] Platelets were then activated with 0.5 μg/mL CRP-XL and the ATP release was monitored for 5 minutes by lumi-aggregometry. The traces shown are representative of three separate experiments.

[3] = test system: outside-in signalling by integrin αIIbβ3; experiment: Clot retraction assay (outside-in signalling by integrin αIIbβ3); type: cell-based, human; details: PRP; 50 μM compound; 1 U/mL thrombin; three hours
Experimental: R represents ‘resting’ platelets.
Following fibrinogen binding, integrin αIIbβ3 triggers signalling into the platelets in order to induce clot retraction and promote wound healing. This also represents a late downstream signalling event in the platelet activation process. To determine whether chrysin and its derivatives affect outside-in signalling by integrin αIIbβ3, a clot retraction assay was performed. […] At three hours, the clot obtained with the vehicle control [0.1% (v/v) DMSO] retracted to around 50 mg.
PRP (200 µL) was mixed with 5 µL of red blood cells and the final volume was made to 950 µL with modified Tyrodes-HEPES buffer in the presence and absence of various concentrations of chrysin or its synthetic derivatives. Clot formation was initiated by adding 1 U/mL (50 µL) thrombin. A glass capillary was placed in middle of the tube and the clot retraction was observed over a period of 3 hours at room temperature. Clot weight was measured as a marker for clot retraction after 3 hours.

[4] = test system: inside-out signalling to integrin αIIbβ3; details: PRP; CRP-XL 0.5 μg/mL
Experimental: The level of fluorescence obtained with vehicle control was taken as 100% to calculate the extent of inhibition in chrysin and its derivatives-treated samples. R represents ‘resting’ platelets. Cumulative data represent mean ± S.D. (n = 4). […] Following incubation, clotting was initiated by the addition of 1 U/mL thrombin and the clot retraction was monitored for three hours. The remaining clot weight at three hours was measured to analyse the extent of retraction process. The image shown on the right is representative of four separate experiments. *Indicates significance with respect to controls and ^#indicates significance with respect to the respective chrysin concentrations; p values shown (*^,# p < 0.05, **^,## p < 0.01 and ***^,### p < 0.001) are as calculated by one-way ANOVA using Graphpad Prism.
The platelets (PRP) were treated with a vehicle control [0.1% (v/v) DMSO] or with different concentrations of chrysin and its synthetic derivatives prior to activation with CRP-XL (0.5 µg/mL). The levels of fibrinogen binding and P-selectin exposure were measured using FITC-labelled anti-human fibrinogen antibodies (Dako, UK) and PECy5-labelled CD62P antibodies (BD Biosciences, UK), respectively. The median fluorescence intensity was used to assess the levels of fibrinogen binding and P-selectin exposure on the platelet surface. […]

Compound | effect on platelet aggregation in PRP [1] | effect on CRP-XL-induced platelet aggregation in washed platelets (human washed platelets) | concentrations that significantly inhibit α-granule secretion [2] [µM] | effect on clot retraction [3] | concentrations with significantly more effects on fibrinogen binding than the respective concentrations of chrysin [4] | effect on platelet aggregation at lower concentrations ([1]; 6.25 μM and 12.5 μM compound)
Cc1ccc(C(C)C)cc1.Cc1ccc(C(C)C)cc1.[Cl-].[Cl-].[Cl-].[Cl-].[Ru+2].[Ru+2] [Ru-Cl, bis [dichlorido (η^6-p-cymene)] ruthenium(II), reference compound] | failed to show any inhibitory effects | failed to affect platelet aggregation |  |  |  | 
Oc1cc(O)c2c(=S)cc(-c3ccccc3)oc2c1 [thio-chrysin] |  | no significant differences | ≥ 25 | significant inhibitory effect |  | 
chlorido [(5-oxo-κO)-7-hydroxy-(2-phenyl)-4H-chromen-4-onato-κO] (η6-p-cymene)ruthenium(II) [Ru-chrysin] |  | inhibited CRP-XL-induced platelet aggregation in a concentration-dependent manner | ≥ 25 |  | more than 25 μM | did not significantly affect the platelet aggregation
